From ChEMBL document CHEMBL5247625, “Discovery and characterization of novel potent BCR-ABL degraders by conjugating allosteric inhibitor” (Eur J Med Chem, 2022)
Calls of active or inactive are those of the source. No cut-off for these calls is given here.

How the values were obtained:
[1] = biological target: T1, Protein cereblon/Tyrosine-protein kinase ABL1/Breakpoint cluster region protein (Homo sapiens, UniProt P00519+P11274+Q96SW2); assay: Protac activity at CRBN/BCR-ABL in human K562 cells assessed as increase in BCR-ABL degradation at 100 nM by Western blotting analysis; type: cell-based
Target sequence in this assay (P00519 whole entry, looked up): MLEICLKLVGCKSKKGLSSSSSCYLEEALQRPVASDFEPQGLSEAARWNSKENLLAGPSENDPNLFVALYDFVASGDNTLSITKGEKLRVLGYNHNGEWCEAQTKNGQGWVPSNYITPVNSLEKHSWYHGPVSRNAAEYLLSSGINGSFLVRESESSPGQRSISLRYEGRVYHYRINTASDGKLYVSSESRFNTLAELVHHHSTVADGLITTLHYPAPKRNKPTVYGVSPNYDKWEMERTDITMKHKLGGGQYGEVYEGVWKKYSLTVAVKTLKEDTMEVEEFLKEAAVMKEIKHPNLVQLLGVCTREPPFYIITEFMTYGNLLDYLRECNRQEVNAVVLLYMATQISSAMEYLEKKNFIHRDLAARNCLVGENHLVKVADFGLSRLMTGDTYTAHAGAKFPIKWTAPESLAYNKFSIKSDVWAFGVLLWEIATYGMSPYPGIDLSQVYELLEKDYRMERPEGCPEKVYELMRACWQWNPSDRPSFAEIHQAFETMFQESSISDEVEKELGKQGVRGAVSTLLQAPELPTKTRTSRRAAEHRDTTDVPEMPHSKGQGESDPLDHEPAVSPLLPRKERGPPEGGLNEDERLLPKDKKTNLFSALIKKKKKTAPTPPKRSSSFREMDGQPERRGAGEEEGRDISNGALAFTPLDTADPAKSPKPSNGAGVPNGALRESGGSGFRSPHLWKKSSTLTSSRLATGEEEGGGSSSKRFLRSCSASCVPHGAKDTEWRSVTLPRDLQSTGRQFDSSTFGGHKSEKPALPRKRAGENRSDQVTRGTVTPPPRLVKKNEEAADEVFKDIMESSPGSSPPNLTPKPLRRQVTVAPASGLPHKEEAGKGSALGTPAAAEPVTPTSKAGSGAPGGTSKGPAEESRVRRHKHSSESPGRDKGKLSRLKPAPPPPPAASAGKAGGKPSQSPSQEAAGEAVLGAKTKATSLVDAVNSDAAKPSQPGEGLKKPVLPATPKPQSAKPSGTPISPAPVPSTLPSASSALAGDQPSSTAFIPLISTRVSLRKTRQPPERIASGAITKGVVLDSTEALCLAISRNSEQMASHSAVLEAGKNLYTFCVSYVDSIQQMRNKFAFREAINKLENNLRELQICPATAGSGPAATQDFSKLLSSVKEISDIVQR
Target sequence in this assay (P11274 whole entry, looked up): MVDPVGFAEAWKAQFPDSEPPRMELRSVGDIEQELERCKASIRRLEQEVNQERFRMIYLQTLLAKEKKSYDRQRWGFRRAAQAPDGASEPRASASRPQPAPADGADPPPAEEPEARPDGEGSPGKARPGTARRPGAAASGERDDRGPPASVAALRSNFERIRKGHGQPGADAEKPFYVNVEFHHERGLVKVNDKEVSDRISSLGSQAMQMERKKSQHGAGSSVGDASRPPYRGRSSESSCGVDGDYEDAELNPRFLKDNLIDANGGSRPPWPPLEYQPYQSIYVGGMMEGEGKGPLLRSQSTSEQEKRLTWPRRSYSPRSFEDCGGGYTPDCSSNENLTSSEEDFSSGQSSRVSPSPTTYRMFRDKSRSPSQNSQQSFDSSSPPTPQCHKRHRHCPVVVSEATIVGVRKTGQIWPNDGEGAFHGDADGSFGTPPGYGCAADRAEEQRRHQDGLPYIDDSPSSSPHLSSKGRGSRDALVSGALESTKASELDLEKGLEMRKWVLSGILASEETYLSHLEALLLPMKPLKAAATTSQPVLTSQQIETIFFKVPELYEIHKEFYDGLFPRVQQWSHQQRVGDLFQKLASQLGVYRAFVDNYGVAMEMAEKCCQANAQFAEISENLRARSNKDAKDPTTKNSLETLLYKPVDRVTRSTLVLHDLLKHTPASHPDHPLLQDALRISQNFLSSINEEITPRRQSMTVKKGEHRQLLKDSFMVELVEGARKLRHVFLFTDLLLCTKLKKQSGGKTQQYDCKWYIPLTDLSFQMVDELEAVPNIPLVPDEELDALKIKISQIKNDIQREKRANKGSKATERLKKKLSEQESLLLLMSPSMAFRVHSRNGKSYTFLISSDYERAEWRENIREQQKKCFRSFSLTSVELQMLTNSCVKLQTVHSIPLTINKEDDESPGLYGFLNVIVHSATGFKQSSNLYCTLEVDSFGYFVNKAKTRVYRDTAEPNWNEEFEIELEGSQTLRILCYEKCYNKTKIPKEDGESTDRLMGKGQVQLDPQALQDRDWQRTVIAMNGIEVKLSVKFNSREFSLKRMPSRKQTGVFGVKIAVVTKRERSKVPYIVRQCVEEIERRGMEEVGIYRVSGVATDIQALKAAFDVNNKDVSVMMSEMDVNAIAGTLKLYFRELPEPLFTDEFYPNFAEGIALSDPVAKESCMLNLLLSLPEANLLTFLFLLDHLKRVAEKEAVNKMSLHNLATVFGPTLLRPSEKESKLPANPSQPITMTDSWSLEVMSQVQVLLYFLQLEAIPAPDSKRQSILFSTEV
Target sequence in this assay (Q96SW2 whole entry, looked up): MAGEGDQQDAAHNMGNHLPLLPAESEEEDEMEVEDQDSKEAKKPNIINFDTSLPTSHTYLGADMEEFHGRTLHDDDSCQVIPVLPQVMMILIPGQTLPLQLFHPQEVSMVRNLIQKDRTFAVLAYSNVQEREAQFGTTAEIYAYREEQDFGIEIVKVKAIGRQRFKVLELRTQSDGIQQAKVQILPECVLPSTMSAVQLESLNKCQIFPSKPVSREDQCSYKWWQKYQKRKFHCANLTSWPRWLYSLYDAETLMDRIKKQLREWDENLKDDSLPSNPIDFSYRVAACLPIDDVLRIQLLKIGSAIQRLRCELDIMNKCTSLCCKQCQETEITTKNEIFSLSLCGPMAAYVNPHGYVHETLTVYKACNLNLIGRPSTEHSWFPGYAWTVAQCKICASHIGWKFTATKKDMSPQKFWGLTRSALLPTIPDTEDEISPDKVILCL

[2] = Apparent permeability in human Caco-2 cells incubated for 120 mins by LC-MS/MS analysis; type: ADME, cell-based; conditions: caco-2, 2 h
[3] = biological target: Tyrosine-protein kinase ABL1 (Homo sapiens, UniProt P00519); assay: Binding affinity to recombinant ABL (unknown origin)
U-937 = assay: Antiproliferative activity against human U-937 cells assessed as inhibition of cell growth incubated for 2 days by CCK8 assay; type: functional, cell-based; conditions: time 2.0 day
[4] = biological target: T1, Protein cereblon/Tyrosine-protein kinase ABL1/Breakpoint cluster region protein; assay: Protac activity at CRBN/BCR-ABL in human K562 cells assessed as increase in BCR-ABL degradation incubated for 16 hrs by Western blotting analysis; type: cell-based
Target sequence in this assay (P00519 whole entry): as the sequence (P00519 whole entry, looked up) above
Target sequence in this assay (P11274 whole entry): as the sequence (P11274 whole entry, looked up) above
Target sequence in this assay (Q96SW2 whole entry): as the sequence (Q96SW2 whole entry, looked up) above

[5] = biological target: T1, Protein cereblon/Tyrosine-protein kinase ABL1/Breakpoint cluster region protein; assay: Protac activity at CRBN/BCR-ABL in human K562 cells assessed as increase in BCR-ABL degradation at 0.3 to 100 nM incubated for 16 hrs by Western blotting analysis relative to control; type: cell-based; conditions: dose 0.3-100 nM
Target sequence in this assay (P00519 whole entry, looked up): as the sequence (P00519 whole entry, looked up) above
Target sequence in this assay (P11274 whole entry, looked up): as the sequence (P11274 whole entry, looked up) above
Target sequence in this assay (Q96SW2 whole entry, looked up): as the sequence (Q96SW2 whole entry, looked up) above

[6] = biological target: T2, Bcr/Abl fusion protein (Homo sapiens) (UniProt P00519+P11274); assay: Inhibition of BCR-ABL phosphorylation at Tyr245 residue in human K562 cells at 0.3 to 100 nM incubated for 16 hrs by Western blotting analysis; type: cell-based; conditions: dose 0.3-100 nM
[7] = biological target: Crk-like protein (Homo sapiens) (UniProt P46109); assay: Inhibition of CRKL phosphorylation at Tyr207 residue in human K562 cells at 0.3 to 100 nM incubated for 16 hrs by Western blotting analysis; type: cell-based; conditions: dose 0.3-100 nM
[8] = biological target: T1, Protein cereblon/Tyrosine-protein kinase ABL1/Breakpoint cluster region protein; assay: Protac activity at CRBN/BCR-ABL in human K562 cells assessed as induction of BCR-ABL degradation at 100 nM by Western blotting analysis; type: cell-based; conditions: time 4.0 hrs, TDE = time-dependent effect
Target sequence in this assay (P00519 whole entry, looked up): as the sequence (P00519 whole entry, looked up) above
Target sequence in this assay (P11274 whole entry, looked up): as the sequence (P11274 whole entry, looked up) above
Target sequence in this assay (Q96SW2 whole entry, looked up): as the sequence (Q96SW2 whole entry, looked up) above

[9] = biological target: T1, Protein cereblon/Tyrosine-protein kinase ABL1/Breakpoint cluster region protein; assay: Protac activity at CRBN/BCR-ABL in human K562 cells assessed as c-ABL turnover rate in presence of cycloheximide by Western blotting analysis; type: cell-based
Target sequence in this assay (P00519 whole entry, looked up): as the sequence (P00519 whole entry, looked up) above
Target sequence in this assay (P11274 whole entry, looked up): as the sequence (P11274 whole entry, looked up) above
Target sequence in this assay (Q96SW2 whole entry, looked up): as the sequence (Q96SW2 whole entry, looked up) above

[10] = biological target: T1, Protein cereblon/Tyrosine-protein kinase ABL1/Breakpoint cluster region protein; assay: Protac activity at CRBN/BCR-ABL in human K562 cells assessed as induction of BCR-ABL degradation at 100 nM pretreated with lenalidomide for 2 hrs followed by compound addition measured after 8 hrs by Western blotting analysis; type: cell-based; conditions: time 10.0 hrs
Target sequence in this assay (P00519 whole entry, looked up): as the sequence (P00519 whole entry, looked up) above
Target sequence in this assay (P11274 whole entry, looked up): as the sequence (P11274 whole entry, looked up) above
Target sequence in this assay (Q96SW2 whole entry, looked up): as the sequence (Q96SW2 whole entry, looked up) above

[11] = biological target: T1, Protein cereblon/Tyrosine-protein kinase ABL1/Breakpoint cluster region protein; assay: Protac activity at CRBN/BCR-ABL in human K562 cells assessed as induction of BCR-ABL degradation at 100 nM pretreated with MLN4924 for 2 hrs followed by compound addition measured after 8 hrs by Western blotting analysis; type: cell-based; conditions: time 10.0 hrs
Target sequence in this assay (P00519 whole entry, looked up): as the sequence (P00519 whole entry, looked up) above
Target sequence in this assay (P11274 whole entry, looked up): as the sequence (P11274 whole entry, looked up) above
Target sequence in this assay (Q96SW2 whole entry, looked up): as the sequence (Q96SW2 whole entry, looked up) above

[12] = biological target: T1, Protein cereblon/Tyrosine-protein kinase ABL1/Breakpoint cluster region protein; assay: Protac activity at CRBN/BCR-ABL in human K562 cells assessed as induction of c-ABL degradation at 100 nM pretreated with asciminib for 2 hrs followed by compound addition measured after 8 hrs by Western blotting analysis; type: cell-based; conditions: time 10.0 hrs
[13] = biological target: T2, Bcr/Abl fusion protein (Homo sapiens); assay: Inhibition of BCR-ABL phosphorylation at Tyr245 residue in human K562 cells at 100 nM by Western blotting analysis; type: cell-based; conditions: time <= 18.0 hrs, TDE = time-dependent effect
[14] = biological target: Crk-like protein (Homo sapiens) (UniProt P46109); assay: Inhibition of CRKL phosphorylation at Tyr207 residue in human K562 cells at 100 nM by Western blotting analysis; type: cell-based; conditions: time <= 18.0 hrs, TDE = time-dependent effect
[15] = biological target: T1, Protein cereblon/Tyrosine-protein kinase ABL1/Breakpoint cluster region protein; assay: Protac activity at CRBN/BCR-ABL in human K562 cells assessed as increase in BCR-ABL degradation at 100 nM incubated for 6 hrs followed by compound washout measured after 4 hrs by Western blotting analysis; type: cell-based
[16] = biological target: T1, Protein cereblon/Tyrosine-protein kinase ABL1/Breakpoint cluster region protein; assay: Protac activity at CRBN/BCR-ABL in human K562 cells assessed as increase in BCR-ABL degradation at 100 nM incubated for 6 hrs followed by compound washout measured upto 96 hrs by Western blotting analysis; type: cell-based
[17] = biological target: T3, Signal transducer and activator of transcription 5A (Homo sapiens) (UniProt P42229); assay: Inhibition of STAT5 phosphorylation at Tyr694 residue in human K562 cells at 100 nM incubated for 6 hrs followed by compound washout measured upto 96 hrs by Western blotting analysis; type: cell-based
T3 sequence (whole entry): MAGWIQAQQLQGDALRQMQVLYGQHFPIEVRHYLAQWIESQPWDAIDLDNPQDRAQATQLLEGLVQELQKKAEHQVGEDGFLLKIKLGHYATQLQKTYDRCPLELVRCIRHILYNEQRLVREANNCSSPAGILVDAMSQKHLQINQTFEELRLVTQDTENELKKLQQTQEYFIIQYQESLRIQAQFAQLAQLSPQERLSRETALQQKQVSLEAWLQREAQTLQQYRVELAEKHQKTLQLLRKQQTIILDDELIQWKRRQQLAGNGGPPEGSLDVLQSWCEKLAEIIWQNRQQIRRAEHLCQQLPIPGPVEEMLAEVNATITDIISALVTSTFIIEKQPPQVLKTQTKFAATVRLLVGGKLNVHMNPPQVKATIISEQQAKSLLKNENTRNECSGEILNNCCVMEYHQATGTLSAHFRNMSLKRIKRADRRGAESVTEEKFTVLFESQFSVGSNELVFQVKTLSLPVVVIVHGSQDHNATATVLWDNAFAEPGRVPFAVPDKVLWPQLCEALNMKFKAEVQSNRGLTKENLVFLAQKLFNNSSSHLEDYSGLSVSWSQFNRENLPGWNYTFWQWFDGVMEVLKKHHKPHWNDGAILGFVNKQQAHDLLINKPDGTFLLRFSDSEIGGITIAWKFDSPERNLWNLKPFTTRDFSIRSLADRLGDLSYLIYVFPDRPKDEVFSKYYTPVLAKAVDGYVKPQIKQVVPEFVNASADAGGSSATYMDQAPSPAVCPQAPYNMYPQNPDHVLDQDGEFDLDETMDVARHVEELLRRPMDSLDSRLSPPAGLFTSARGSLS

[18] = biological target: Crk-like protein (Homo sapiens) (UniProt P46109); assay: Inhibition of CRKL phosphorylation at Tyr207 residue in human K562 cells at 100 nM incubated for 6 hrs followed by compound washout measured upto 96 hrs by Western blotting analysis; type: cell-based
K562 [19] = assay: Induction of cell death in human K562 cells assessed as inhibition of cell growth at 100 nM incubated for 6 hrs followed by compound washout measured upto 96 hrs; type: functional, cell-based
K562 [20] = assay: Down regulation of ZFP91 expression in human K562 cells at 100 nM measured after 16 hrs by LC-MS analysis; type: functional, cell-based
[21] = test system: Protein cereblon/Tyrosine-protein kinase ABL1/Breakpoint cluster region protein (Mus musculus), P00519+P11274+Q8C7D2 [K294E]; assay: Protac activity at CRBN/asciminib resistance BCR-ABL K294E mutant in mouse 32D cells assessed as increase in BCR-ABL degradation at 1 to 1000 nM by Western blotting analysis; type: cell-based; conditions: dose 1-1000 nM
[22] = test system: Protein cereblon/Tyrosine-protein kinase ABL1/Breakpoint cluster region protein (Mus musculus), P00519+P11274+Q8C7D2 [T315M]; assay: Protac activity at CRBN/asciminib resistance BCR-ABL T315M mutant in mouse 32D cells assessed as increase in BCR-ABL degradation at 1 to 1000 nM by Western blotting analysis; type: cell-based; conditions: dose 1-1000 nM
K562 [23] = assay: cells; conditions: Homo sapiens, K562, 48 h
Description: Antiproliferative activity against human K562 cells assessed as inhibition of cell growth incubated for 2 days by CCK8 assay

Sequence of Crk-like protein (Homo sapiens) (P46109 whole entry): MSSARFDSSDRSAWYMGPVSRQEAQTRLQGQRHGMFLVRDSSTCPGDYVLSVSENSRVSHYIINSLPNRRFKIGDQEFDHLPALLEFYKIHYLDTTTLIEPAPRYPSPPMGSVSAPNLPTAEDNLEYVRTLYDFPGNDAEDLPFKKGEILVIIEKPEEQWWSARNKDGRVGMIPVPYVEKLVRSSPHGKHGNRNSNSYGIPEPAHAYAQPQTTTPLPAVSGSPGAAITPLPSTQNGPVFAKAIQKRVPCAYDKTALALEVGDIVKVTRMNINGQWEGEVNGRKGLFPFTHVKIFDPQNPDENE
T2 sequence (P00519 whole entry, looked up, the tested form may be a part): as the sequence (P00519 whole entry, looked up) above
T2 sequence (P11274 whole entry, looked up, the tested form may be a part): as the sequence (P11274 whole entry, looked up) above
Sequence of Tyrosine-protein kinase ABL1 (P00519 whole entry): as the sequence (P00519 whole entry, looked up) above

In the case of `O=C1CCC(N2Cc3c(SCCCCCCN4CCN(C5CCN(c6ncc(C(=O)Nc7ccc(OC(F)(F)Cl)cc7)cc6-c6ccn[nH]6)CC5)CC4)cccc3C2=O)C(=O)N1` (centres undefined), the Activity [1] is reported as 91.2%, the Papp [2] is reported as “Impermeable” and the Kd [3] is reported as 4740 nM. For the same molecule, the Activity (U-937) was “inactive”, the DC50 [4] was 2.7 nM and the Emax [5] was 91.2%. For the same molecule, the inhibition [6] was “Active”, the inhibition [7] was “Active” and the Activity [8] was “Tde”. The Activity [9] was “Active”, the Activity [10] was “inactive” and the Activity [11] was “inactive”. The Activity [12] was “inactive”, the inhibition [13] was “Tde” and the inhibition [14] was “Tde”. The Activity [15] was “inactive”, the Activity [16] was “inactive” and the inhibition [17] was “inactive”. The inhibition [18] was “inactive”, the Activity (K562 [19]) was “Active” and the Activity (K562 [20]) was “Active”. For the same molecule, the Activity [21] was “Active”, the Activity [22] was “Active” and the IC50 (K562 [23]) was 12 nM.
